Values quoted from earlier work in patent US10918652B2, “Compositions for the treatment of dermatological diseases and disorders” (CLARIDEI LABORATORIES, INC., priority 2014, dated 2021).

Conditions: cited from Ramachandran et al. 2006

## O=C(O)[C@H](O)[C@@H](O)[C@H](O)[C@H](O)CO [Gluconic acid]
  pKa: 3.7
